Experimental data reported in ChEMBL document CHEMBL5291721, “A preclinical secondary pharmacology resource illuminates target-adverse drug reaction associations of marketed drugs” (Nat Commun, 2023).

Experiments:
Vasopressin V1a receptor = Vasopressin V1a receptor (Homo sapiens, UniProt P37288)
[1] = molecular target: T1, Muscarinic acetylcholine receptor M2 (Homo sapiens, UniProt P08172); assay type: functional, cell-based
T1 sequence (P08172 whole entry): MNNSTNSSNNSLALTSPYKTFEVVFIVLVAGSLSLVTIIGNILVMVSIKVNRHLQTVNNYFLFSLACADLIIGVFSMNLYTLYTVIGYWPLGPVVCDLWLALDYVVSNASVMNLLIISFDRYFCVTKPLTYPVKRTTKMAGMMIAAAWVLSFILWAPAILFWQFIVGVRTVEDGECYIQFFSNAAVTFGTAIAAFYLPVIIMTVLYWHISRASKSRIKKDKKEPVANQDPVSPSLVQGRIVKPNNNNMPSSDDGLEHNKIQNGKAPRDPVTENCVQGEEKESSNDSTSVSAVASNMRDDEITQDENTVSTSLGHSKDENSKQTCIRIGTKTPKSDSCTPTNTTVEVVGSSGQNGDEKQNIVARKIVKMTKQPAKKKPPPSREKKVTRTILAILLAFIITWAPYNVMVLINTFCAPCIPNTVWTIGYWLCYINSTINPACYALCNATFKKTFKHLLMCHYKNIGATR

[2] = molecular target: T1, Muscarinic acetylcholine receptor M2; assay type: functional, cell-based; remark: listed apart in the source
[3] = molecular target: Muscarinic acetylcholine receptor M3 (Homo sapiens, UniProt P20309)
[4] = molecular target: Neuronal acetylcholine receptor subunit alpha-4 (Homo sapiens, UniProt P43681)
[5] = molecular target: Gamma-aminobutyric acid receptor subunit alpha-1 (Rattus norvegicus, UniProt P62813)
[6] = molecular target: Voltage-gated inwardly rectifying potassium channel KCNH2 (Homo sapiens, UniProt Q12809); assay type: functional; conditions: read-out: AC50
Melanocortin receptor 3 = Melanocortin receptor 3 (Homo sapiens, UniProt P41968)
[7] = molecular target: T2, Neuropeptide Y receptor type 1 (Homo sapiens, UniProt P25929)
T2 sequence (P25929 whole entry): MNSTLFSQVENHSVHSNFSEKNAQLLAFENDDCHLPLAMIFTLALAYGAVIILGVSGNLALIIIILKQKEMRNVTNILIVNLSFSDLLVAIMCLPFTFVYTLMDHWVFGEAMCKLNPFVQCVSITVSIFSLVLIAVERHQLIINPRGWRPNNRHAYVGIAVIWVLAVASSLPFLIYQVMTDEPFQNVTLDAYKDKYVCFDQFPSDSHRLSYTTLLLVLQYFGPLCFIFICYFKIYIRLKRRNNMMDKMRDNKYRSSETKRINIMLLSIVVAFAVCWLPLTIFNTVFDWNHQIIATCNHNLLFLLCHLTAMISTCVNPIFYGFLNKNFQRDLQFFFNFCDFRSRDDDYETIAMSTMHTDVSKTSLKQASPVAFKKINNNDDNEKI

[8] = molecular target: Delta-type opioid receptor (Homo sapiens, UniProt P41143)
[9] = molecular target: Kappa-type opioid receptor (Homo sapiens, UniProt P41145)
Thromboxane A2 receptor = molecular target: T3, Thromboxane A2 receptor (Homo sapiens, UniProt P21731)
T3 sequence (P21731 whole entry): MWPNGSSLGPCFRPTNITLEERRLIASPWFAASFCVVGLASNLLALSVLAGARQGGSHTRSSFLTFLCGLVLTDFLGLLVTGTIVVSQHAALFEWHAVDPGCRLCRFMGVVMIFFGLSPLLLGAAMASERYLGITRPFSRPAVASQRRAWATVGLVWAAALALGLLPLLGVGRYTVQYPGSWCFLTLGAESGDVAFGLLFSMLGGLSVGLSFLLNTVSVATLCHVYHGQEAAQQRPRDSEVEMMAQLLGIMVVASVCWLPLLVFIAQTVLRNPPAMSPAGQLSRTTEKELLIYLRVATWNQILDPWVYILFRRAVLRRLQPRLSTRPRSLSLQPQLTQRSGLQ

D(3) dopamine receptor = D(3) dopamine receptor (Homo sapiens, UniProt P35462)
Progesterone receptor = molecular target: T4, Progesterone receptor (Homo sapiens, UniProt P06401); assay type: functional
T4 sequence (P06401 whole entry): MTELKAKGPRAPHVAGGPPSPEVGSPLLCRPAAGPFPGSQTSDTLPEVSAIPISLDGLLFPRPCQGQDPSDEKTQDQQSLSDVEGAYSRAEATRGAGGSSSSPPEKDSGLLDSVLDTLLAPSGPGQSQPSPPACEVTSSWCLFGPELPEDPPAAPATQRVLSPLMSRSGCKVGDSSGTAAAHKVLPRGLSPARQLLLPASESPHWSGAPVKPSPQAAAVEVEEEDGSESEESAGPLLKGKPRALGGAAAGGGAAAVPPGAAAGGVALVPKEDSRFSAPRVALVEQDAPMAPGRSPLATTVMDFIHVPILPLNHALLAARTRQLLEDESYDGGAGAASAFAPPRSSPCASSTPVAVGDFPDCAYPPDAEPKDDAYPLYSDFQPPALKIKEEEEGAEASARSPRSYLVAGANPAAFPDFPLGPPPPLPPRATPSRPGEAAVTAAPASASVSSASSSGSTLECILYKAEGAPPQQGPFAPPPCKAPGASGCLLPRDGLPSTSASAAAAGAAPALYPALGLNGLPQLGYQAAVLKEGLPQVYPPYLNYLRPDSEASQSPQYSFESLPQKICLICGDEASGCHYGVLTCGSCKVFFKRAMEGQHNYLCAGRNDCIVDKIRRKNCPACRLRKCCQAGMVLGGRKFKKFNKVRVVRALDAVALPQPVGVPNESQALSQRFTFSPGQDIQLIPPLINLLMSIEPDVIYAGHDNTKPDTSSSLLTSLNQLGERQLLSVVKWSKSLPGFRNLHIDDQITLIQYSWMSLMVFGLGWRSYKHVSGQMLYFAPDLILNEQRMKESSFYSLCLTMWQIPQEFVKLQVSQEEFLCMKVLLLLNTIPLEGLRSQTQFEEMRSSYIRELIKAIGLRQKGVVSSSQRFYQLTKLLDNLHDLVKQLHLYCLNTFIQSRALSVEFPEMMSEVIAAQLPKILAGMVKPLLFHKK
Further: assay procedure not described here.

Sequence of Muscarinic acetylcholine receptor M3 (P20309 whole entry): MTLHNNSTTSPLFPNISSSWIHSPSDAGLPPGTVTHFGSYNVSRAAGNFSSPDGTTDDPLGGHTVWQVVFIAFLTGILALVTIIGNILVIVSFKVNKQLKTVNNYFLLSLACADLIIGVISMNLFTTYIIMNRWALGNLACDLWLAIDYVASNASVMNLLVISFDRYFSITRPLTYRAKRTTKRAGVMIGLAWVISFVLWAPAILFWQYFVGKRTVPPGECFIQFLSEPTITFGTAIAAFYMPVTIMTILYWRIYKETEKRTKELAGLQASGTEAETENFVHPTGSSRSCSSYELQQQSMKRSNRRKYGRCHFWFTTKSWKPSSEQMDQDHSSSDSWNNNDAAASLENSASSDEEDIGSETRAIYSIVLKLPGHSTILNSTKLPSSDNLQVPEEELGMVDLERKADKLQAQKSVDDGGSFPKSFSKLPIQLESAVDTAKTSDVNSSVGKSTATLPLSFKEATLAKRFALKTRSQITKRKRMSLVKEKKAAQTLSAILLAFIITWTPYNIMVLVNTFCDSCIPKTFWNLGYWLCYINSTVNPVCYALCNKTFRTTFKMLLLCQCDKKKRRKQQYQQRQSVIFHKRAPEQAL
Sequence of Vasopressin V1a receptor (P37288 whole entry): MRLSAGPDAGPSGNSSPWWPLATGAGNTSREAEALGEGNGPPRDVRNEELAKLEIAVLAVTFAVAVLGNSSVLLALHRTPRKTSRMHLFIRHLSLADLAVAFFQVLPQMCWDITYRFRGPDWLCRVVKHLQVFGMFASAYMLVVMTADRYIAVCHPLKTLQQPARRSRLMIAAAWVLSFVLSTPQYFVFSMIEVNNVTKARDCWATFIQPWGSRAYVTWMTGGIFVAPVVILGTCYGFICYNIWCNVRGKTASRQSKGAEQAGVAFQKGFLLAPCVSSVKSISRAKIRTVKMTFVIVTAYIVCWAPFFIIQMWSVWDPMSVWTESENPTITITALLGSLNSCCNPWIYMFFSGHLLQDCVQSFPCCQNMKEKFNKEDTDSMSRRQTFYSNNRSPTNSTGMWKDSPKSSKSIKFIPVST
Sequence of D(3) dopamine receptor (P35462 whole entry): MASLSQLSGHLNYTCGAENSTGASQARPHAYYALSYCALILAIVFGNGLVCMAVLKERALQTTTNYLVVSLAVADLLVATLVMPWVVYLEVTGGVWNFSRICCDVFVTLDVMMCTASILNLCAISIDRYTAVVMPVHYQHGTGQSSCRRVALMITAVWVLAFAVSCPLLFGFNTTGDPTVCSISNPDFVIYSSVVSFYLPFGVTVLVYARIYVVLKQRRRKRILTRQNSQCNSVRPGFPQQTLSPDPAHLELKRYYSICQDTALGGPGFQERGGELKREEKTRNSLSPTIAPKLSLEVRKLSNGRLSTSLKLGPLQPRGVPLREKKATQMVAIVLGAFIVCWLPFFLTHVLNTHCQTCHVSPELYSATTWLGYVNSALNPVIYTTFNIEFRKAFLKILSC
Sequence of Neuronal acetylcholine receptor subunit alpha-4 (P43681 whole entry): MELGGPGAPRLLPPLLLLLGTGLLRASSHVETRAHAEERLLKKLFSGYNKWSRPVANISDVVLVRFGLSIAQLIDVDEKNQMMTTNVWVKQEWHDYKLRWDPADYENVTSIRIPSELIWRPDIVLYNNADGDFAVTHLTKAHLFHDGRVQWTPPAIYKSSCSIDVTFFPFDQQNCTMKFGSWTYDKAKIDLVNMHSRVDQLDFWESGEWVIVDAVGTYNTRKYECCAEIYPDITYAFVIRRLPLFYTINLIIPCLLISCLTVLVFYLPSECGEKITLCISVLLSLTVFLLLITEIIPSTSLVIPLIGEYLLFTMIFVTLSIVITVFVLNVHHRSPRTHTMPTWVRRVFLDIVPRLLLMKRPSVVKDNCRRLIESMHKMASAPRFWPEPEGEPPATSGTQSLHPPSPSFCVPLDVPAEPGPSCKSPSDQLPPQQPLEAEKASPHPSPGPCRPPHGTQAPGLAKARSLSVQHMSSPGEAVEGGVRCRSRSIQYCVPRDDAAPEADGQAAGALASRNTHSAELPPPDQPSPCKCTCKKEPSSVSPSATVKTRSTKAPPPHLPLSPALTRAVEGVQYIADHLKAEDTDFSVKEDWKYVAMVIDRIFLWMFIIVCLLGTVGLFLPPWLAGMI
Sequence of Delta-type opioid receptor (P41143 whole entry): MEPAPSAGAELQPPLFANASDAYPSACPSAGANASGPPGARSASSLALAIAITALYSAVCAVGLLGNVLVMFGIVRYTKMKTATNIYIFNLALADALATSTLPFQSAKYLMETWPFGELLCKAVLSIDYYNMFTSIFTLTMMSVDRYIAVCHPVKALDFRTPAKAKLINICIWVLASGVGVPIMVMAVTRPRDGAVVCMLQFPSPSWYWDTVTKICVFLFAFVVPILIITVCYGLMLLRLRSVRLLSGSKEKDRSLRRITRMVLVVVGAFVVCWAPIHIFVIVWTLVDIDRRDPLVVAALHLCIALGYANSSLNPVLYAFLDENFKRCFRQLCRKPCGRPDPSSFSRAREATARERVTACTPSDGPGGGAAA
Sequence of Voltage-gated inwardly rectifying potassium channel KCNH2 (Q12809 whole entry): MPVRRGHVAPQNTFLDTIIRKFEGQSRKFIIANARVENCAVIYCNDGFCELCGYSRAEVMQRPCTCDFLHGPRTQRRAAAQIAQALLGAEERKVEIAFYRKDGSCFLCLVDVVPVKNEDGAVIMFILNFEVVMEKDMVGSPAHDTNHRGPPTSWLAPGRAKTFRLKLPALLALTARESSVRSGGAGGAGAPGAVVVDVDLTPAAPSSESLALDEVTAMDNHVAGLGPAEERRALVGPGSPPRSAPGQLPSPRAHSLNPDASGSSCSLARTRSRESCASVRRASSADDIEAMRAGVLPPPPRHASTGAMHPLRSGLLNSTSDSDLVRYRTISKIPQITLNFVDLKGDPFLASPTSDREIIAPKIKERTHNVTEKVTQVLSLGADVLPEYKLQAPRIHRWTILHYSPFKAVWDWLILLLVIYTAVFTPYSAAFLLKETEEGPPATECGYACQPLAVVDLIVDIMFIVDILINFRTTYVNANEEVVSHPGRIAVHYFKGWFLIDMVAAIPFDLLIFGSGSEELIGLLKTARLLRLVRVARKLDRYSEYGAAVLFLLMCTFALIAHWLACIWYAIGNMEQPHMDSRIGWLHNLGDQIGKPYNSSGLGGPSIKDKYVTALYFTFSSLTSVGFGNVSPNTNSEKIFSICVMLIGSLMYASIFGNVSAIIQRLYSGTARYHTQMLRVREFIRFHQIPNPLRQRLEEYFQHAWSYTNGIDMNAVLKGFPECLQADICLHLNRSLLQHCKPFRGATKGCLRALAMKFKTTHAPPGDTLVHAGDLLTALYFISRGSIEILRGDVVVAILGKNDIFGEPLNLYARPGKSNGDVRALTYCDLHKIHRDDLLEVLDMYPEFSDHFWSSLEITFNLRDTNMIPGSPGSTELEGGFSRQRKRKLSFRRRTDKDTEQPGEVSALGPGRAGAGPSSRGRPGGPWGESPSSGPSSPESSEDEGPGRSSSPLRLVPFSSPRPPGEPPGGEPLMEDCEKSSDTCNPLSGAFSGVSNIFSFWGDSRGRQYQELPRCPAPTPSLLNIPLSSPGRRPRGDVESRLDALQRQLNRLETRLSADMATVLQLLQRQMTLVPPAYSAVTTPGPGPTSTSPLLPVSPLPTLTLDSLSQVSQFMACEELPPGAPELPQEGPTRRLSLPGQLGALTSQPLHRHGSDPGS
Sequence of Kappa-type opioid receptor (P41145 whole entry): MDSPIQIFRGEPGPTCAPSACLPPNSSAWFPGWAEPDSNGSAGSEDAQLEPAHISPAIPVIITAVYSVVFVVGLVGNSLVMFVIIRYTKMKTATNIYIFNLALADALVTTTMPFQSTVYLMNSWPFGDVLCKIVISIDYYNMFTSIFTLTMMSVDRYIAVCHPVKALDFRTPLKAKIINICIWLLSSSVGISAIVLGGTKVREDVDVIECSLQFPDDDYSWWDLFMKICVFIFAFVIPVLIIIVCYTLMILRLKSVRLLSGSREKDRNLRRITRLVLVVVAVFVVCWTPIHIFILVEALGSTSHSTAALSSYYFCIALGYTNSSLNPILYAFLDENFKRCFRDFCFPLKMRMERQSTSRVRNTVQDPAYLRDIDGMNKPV
Sequence of Gamma-aminobutyric acid receptor subunit alpha-1 (P62813 whole entry): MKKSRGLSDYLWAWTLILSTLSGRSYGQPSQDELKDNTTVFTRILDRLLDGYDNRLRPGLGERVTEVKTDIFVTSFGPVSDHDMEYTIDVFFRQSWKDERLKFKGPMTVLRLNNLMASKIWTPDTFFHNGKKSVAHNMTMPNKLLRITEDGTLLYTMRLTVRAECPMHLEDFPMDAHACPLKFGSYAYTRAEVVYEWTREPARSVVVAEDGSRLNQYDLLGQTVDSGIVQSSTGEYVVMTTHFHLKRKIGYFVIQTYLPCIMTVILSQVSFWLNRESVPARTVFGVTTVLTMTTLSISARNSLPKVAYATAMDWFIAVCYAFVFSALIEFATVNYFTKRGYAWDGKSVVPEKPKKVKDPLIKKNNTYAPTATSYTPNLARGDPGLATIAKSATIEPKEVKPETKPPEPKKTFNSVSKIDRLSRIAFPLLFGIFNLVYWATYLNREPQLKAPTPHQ
Sequence of Melanocortin receptor 3 (P41968 whole entry): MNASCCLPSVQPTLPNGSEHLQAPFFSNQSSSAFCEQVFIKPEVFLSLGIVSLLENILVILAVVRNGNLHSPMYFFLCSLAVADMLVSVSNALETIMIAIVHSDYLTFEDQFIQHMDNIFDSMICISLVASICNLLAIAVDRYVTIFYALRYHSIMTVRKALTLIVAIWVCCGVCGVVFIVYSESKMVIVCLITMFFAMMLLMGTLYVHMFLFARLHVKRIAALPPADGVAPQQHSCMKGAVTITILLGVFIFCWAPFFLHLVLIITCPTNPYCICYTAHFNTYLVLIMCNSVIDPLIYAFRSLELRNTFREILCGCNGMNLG

| Compound | AC50 (Vasopressin V1a receptor) [µM] | AC50 [1] [µM] | AC50 [2] [µM] | AC50 [3] [µM] | AC50 [4] [µM] | AC50 [5] [µM] | AC50 [6] [µM] | AC50 (Melanocortin receptor 3) [µM] | AC50 [7] [µM] | AC50 [8] [µM] | AC50 [9] [µM] | AC50 (Thromboxane A2 receptor) [µM] | AC50 (D(3) dopamine receptor) [µM] | AC50 (Progesterone receptor) [µM] |
| --- | --- | --- | --- | --- | --- | --- | --- | --- | --- | --- | --- | --- | --- | --- |
| CN[C@@H](C)[C@H](O)c1ccccc1 [EPHEDRINE] | > 10 | 17 | > 10 | > 10 | > 10 | > 10 | > 30 | > 30 | > 30 | > 30 | > 10 | > 30 | > 10 |  |
| CC/C=C\C/C=C\C/C=C\CCCCCCCC(=O)O [LINOLENIC ACID] | > 30 | > 30 | > 30 | > 30 | > 30 | > 30 | > 30 | > 30 | > 30 | > 30 | > 30 | > 30 | > 30 |  |
| Cc1cc(-c2ccccc2)nnc1NCCN1CCOCC1 [MINAPRINE] | > 10 | > 10 | > 10 | > 10 | > 10 | > 10 | 3.44 | > 30 | > 30 | > 30 | > 10 | > 30 | > 10 |  |
| COc1c(C)c2c(c(O)c1C/C=C(\C)CCC(=O)OCCN1CCOCC1)C(=O)OC2 [MYCOPHENOLATE MOFETIL] |  | > 30 | > 30 |  | > 30 | > 30 | 13 | > 30 | > 30 | > 30 | > 30 | > 30 | > 30 | > 30 |
| Nc1nc2ccc(OC(F)(F)F)cc2s1 [RILUZOLE] | > 30 | > 30 | > 30 |  | > 30 |  |  | > 30 | > 30 | > 30 | > 30 |  | > 30 | > 30 |
| C#CCN(C)[C@H](C)Cc1ccccc1 [SELEGILINE] |  | > 10 | > 10 |  | > 10 | > 10 | > 30 | > 10 | > 10 | > 30 | 7.8 | > 10 | > 30 | > 10 |
| CN[C@@H]1[C@H](O)[C@H](NC)[C@H]2O[C@@]3(O)C(=O)C[C@@H](C)O[C@H]3O[C@@H]2[C@H]1O [SPECTINOMYCIN] |  | > 10 | > 10 |  | > 10 | > 10 | > 30 | > 10 | > 10 | > 30 | > 10 | > 10 | > 30 | > 10 |
| CC[C@]1(O)C[C@@H]2CN(CCc3c([nH]c4ccccc34)[C@@](C(=O)OC)(c3cc4c(cc3OC)N(C)[C@H]3[C@@](O)(C(N)=O)[C@H](O)[C@]5(CC)C=CCN6CC[C@]43[C@@H]65)C2)C1 [VINDESINE] |  | > 30 | > 30 |  | > 30 | > 30 | 14.9 | > 30 | > 30 | > 30 | > 30 | > 30 | > 30 | > 30 |
